From the Deep4Chem optical property database

Experiment: solvent given as SMILES

`Cc1cc(N(C)C)cc(C)c1/C=C/C=C/c1ccc(C#N)cc1` showed a fluorescence lifetime (in C1CCOC1) of 0.51 ns, a fluorescence lifetime (in CC#N) of 0.61 ns and a fluorescence lifetime (in CCCCCC) of 0.29 ns. For the same compound, the fluorescence lifetime (in CCCCOCCCC) was 0.38 ns, the fluorescence lifetime (in CCO) was 0.58 ns and the fluorescence lifetime (in CCOCC) was 0.49 ns.

`CC1=C2C=CC=[N+]2[B-](F)(F)n2cccc21` gave a fluorescence lifetime (in CCCCCC) of 6.62 ns, a fluorescence lifetime (in CO) of 6.69 ns and a fluorescence lifetime (in ClCCl) of 6.16 ns.

With `COc1ccc(C2=c3sc(-c4ccc(OC)cc4)c(-c4ccc(OC)cc4)c3=[N+]3C2=Nc2c(-c4ccc(OC)cc4)c4sc(-c5ccc(OC)cc5)c(-c5ccc(OC)cc5)c4n2[B-]3(F)F)cc1` the fluorescence lifetime (in ClC(Cl)Cl) was 1.53 ns.

`COc1ccc(C2=C3C=CC(C)=[N+]3[B-](F)(F)n3c(C)ccc32)cc1` gave a fluorescence lifetime (in C1CCCCC1) of 2.87 ns, a fluorescence lifetime (in CC#N) of 1.6 ns and a fluorescence lifetime (in CCOC(C)=O) of 2.24 ns. For the same compound, the fluorescence lifetime (in CO) was 1.87 ns, the fluorescence lifetime (in Cc1ccccc1) was 3.35 ns and the fluorescence lifetime (in ClC(Cl)Cl) was 3.28 ns.

`CN(C)c1ccc(C2=Nc3sc4c(F)c(F)c(F)c(F)c4[n+]3[B-](F)(F)O2)cc1` gave a fluorescence lifetime (in Cc1ccccc1) of 2 ns.

Compound `CC1(C)c2ccccc2N(c2ccc(C(=C(C#N)C#N)c3ccc(N4c5ccccc5C(C)(C)c5ccccc54)cc3)cc2)c2ccccc21` has a fluorescence lifetime (in Cc1ccccc1) of 3.1 ns.

With `CCCCCCCCN1C(=O)c2ccc3c4c(-c5ccc(-n6c7ccccc7c7ccccc76)cc5)cc5c6c(ccc(c7c(-c8ccc(-n9c%10ccccc%10c%10ccccc%109)cc8)cc(c2c37)C1=O)c64)C(=O)N(CCCCCCCC)C5=O` the fluorescence lifetime (in ClC(Cl)Cl) was 3.4 ns.

With `CCN(CC)c1ccc(/N=N/c2nc3ccc(Br)cc3s2)cc1` the fluorescence lifetime (in CC#N) was 3.03 ns and the fluorescence lifetime (in ClCCl) was 2.75 ns.

In the case of `c1ccc(-c2ccc(-c3ccc(N(c4ccccc4)c4ccccc4)cc3)c3nsnc23)cc1`, the fluorescence lifetime (in C1CCOC1) is reported as 7.95 ns, the fluorescence lifetime (in CC(C)=O) is reported as 3.58 ns and the fluorescence lifetime (in CCCCCC) is reported as 6.77 ns. It also gave a fluorescence lifetime (in CCOCC) of 7.46 ns.

`BrCCCCCCCCCCCCOc1cc2ccc3cccc4ccc(c1)c2c34` showed a fluorescence lifetime (in Cc1ccccc1) of 60 ns.

Work on `Cc1nc2c(c[n+]1C)CN1C(=O)N([C@H]3O[C@@H](CO)[C@H](O)[C@@H]3O)C=CC1=N2` yielded a fluorescence lifetime (in CC#N) of 3.61 ns, a fluorescence lifetime (in CC(C)=O) of 3.12 ns and a fluorescence lifetime (in CCCO) of 0.39 ns. It also gave a fluorescence lifetime (in CCO) of 0.47 ns, a fluorescence lifetime (in CO) of 0.55 ns and a fluorescence lifetime (in O) of 1.58 ns. For the same compound, the fluorescence lifetime (in [2H]OC) was 0.58 ns, the fluorescence lifetime (in [2H]OCC) was 0.5 ns and the fluorescence lifetime (in [2H]O[2H]) was 1.86 ns.

Work on `CCCCn1c(-c2ccc(-c3nnc(-c4ccc(-c5nc6ccccc6n5CCCC)cc4)o3)cc2)nc2ccccc21` yielded a fluorescence lifetime (in ClCCl) of 0.99 ns.

`c1ccc(N2N=C(c3ccc4ccc5cccc6ccc3c4c56)CC2c2ccc3ccc4cccc5ccc2c3c45)cc1` (stereo not drawn) showed a fluorescence lifetime (in ClCCl) of 2.67 ns.

Compound `CCn1c2ccccc2c2cc(C#Cc3cc(C#Cc4ccc5c(c4)c4ccccc4n5CC)nc(C#N)n3)ccc21` has a fluorescence lifetime (in C1CCOC1) of 4.26 ns.

`FC(F)(F)c1ccc(-c2nnc(-c3cc(-c4nnc(-c5ccc(C(F)(F)F)cc5)o4)c(-n4c5ccccc5c5ccccc54)cc3-n3c4ccccc4c4ccccc43)o2)cc1` gave a fluorescence lifetime (in Cc1ccccc1) of 5.1 ns and a fluorescence lifetime (in O=P(c1ccccc1)(c1ccccc1)c1ccccc1Oc1ccccc1P(=O)(c1ccccc1)c1ccccc1) of 8.6 ns.

In the case of `COC(=O)/C(C#N)=c1\s/c(=c2/s/c(=C(/C#N)C(=O)OC)c3cc(-c4ccc(F)cc4)sc23)c2sc(-c3ccc(F)cc3)cc12`, the fluorescence lifetime (in Cc1ccccc1) is reported as 2.9 ns.

Work on `CCCN1C(=O)c2c3c(c4c(c2C1=O)CCc1cc(-c2ccc(N(C)C)cc2)c(OC)cc1-4)-c1cc(OC)c(-c2ccc(N(C)C)cc2)cc1CC3` yielded a fluorescence lifetime (in C1CCCCC1) of 5.13 ns, a fluorescence lifetime (in C1CCOC1) of 0.93 ns and a fluorescence lifetime (in CCOC(C)=O) of 0.85 ns. The fluorescence lifetime (in Cc1ccccc1) was 5.64 ns and the fluorescence lifetime (in ClCCl) was 0.38 ns.

Compound `CC(C)(C)NC(=O)c1cc2ccccc2c2ccc3c4ccccc4c4ccccc4c3c12` has a fluorescence lifetime (in ClCCl) of 3.28 ns.

Work on `CCOc1ccc2c(-c3nc(-c4ccccc4F)no3)cc(=O)oc2c1` yielded a fluorescence lifetime (in CCO) of 6.6 ns and a fluorescence lifetime (in ClC(Cl)Cl) of 5.1 ns.

Compound `CCCCCCOc1ccc(N(c2ccc(OCCCCCC)cc2)c2ccc(-c3sc(-c4ccc(N(c5ccc(OCCCCCC)cc5)c5ccc(OCCCCCC)cc5)cc4)c4nc(CC)c(CC)nc34)cc2)cc1` has a fluorescence lifetime (in CN(C)C=O) of 0.92 ns and a fluorescence lifetime (in ClC(Cl)Cl) of 1.09 ns.

Work on `Cc1ccc(C)n1-c1ccccc1` yielded a fluorescence lifetime (in CC#N) of 5 ns.

Compound `O=S1c2ccccc2-c2cc(-c3c4ccccc4cc4ccccc34)ccc21` (stereo not drawn) has a fluorescence lifetime (in C1CCCCC1) of 2.4 ns, a fluorescence lifetime (in CC#N) of 3.5 ns and a fluorescence lifetime (in ClCCl) of 3.3 ns.

`COc1cc(/C=C/c2nc(N3CCOCC3)c3c([n+]2[O-])CCCC3)cc(OC)c1OC` gave a fluorescence lifetime (in ClCCl) of 8.5 ns.

In the case of `COc1ccc(N(c2ccccc2)c2ccc(OC)cc2)cc1`, the fluorescence lifetime (in Cc1ccccc1) is reported as 2.27 ns.

In the case of `CN(C)c1ccc(/C=C/c2cc[n+](C)cc2)cc1`, the fluorescence lifetime (in ClC(Cl)Cl) is reported as 0.153 ns.
